Assay results published in patent US8716281B2, “Pyrimidine compounds that inhibit anaplastic lymphoma kinase” (Amgen Inc., priority 2010, dated 2014).

Target: T1, wild-type human ALK cytoplasmic domain (amino acids 1058-1620) (Homo sapiens, UniProt Q9UM73)
T1 construct: The cytoplasmic domain (amino acids 1058-1620) of wild-type human ALK; GST (N); made in house; host or cells: SF9 insect cells
Assay: ALK Inhibition in Enzyme Assay (Lance TR-FRET)
Format: biochemical
Conditions: 2 nM enzyme, ATP at 40 μM (Km apparent), 90 minutes, mean of three replicates; read-out: ALK IC50
Experimental: ALK Inhibition in Enzyme Assay
Kinase activity of the purified protein was assessed using a Lance® TR-FRET assay. […] The reaction was allowed to proceed for 90 minutes at room temperature and was then terminated with 20 mM EDTA in 50 mM Tris (pH 7.5), 100 mM NaCl, 0.05% BSA, and 0.1% Tween-20. Phosphorylation of the peptide substrate was detected using the Lance® detection reagents streptavidin-allophycocyanin (SA-APC) and Eu-W1024 anti-phosphotyrosine antibody (PT66) from Perkin Elmer Life Sciences (Waltham, Mass.). The plates were read on a RUBY star plate reader (BMG LABTECH, Cary, N.C.) with an excitation wavelength of 320 nm.

T1 sequence (Q9UM73 1058-1620): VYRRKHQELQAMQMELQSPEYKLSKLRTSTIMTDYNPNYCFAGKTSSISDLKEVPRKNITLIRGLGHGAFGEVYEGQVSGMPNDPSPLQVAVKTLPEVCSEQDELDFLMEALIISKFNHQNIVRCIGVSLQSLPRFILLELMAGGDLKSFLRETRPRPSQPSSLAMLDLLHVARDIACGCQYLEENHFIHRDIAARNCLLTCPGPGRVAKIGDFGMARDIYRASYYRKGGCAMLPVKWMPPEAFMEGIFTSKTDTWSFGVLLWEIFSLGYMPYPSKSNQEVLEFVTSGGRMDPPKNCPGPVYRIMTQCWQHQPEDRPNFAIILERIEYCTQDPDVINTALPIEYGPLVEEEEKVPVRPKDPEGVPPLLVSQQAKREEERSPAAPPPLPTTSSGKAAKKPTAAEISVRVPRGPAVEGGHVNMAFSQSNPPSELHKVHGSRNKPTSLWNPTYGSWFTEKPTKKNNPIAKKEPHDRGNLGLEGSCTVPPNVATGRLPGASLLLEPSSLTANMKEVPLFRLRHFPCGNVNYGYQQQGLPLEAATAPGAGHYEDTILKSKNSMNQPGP

SMILES | IC50 [nM]
COc1cc(Nc2nccc(N3CCC[C@H](C(=O)NCc4ccccc4C(F)(F)F)C3)n2)cc(OC)c1OC [Example 37, (S)-N-(2-(trifluoromethyl)benzyl)-1-(2-((3,4,5-trimethoxyphenyl)amino)-4-pyrimidinyl)-3-piperidinecarboxamide] | 5000 to 10000
COc1cccc(CNC(=O)[C@H]2CCCN(c3ccnc(Nc4cc(OC)c(OC)c(OC)c4)n3)C2)c1 [Example 38, (S)-N-(3-methoxybenzyl)-1-(2-((3,4,5-trimethoxyphenyl)amino)-4-pyrimidinyl)-3-piperidinecarboxamide] | 100 to 1000
COc1cc(Nc2nccc(N3CCC[C@H](C(=O)NC4CCc5ccccc54)C3)n2)cc(OC)c1OC (stereo partly drawn) [Example 39, (S)-N-(2,3-dihydro-1H-inden-1-yl)-1-(2-((3,4,5-trimethoxyphenyl)amino)-4-pyrimidinyl)-3-pipcridinecarboxamide] | 1000 to 5000
COc1cc(Nc2nccc(N3CCC[C@H](C(=O)NCc4ccc(N(C)C)cc4)C3)n2)cc(OC)c1OC [Example 42, (S)-N-(4-(dimethylamino)benzyl)-1-(2-((3,4,5-trimethoxyphenyl)amino)-4-pyrimidinyl)-3-piperidinecarboxamide] | 1000 to 5000
COc1cc(Nc2nccc(N3CCC[C@H](C(=O)NC(C#N)c4ccccc4)C3)n2)cc(OC)c1OC (stereo partly drawn) [Example 43, (S)-N-(cyano(phenyl)methyl)-1-(2-((3,4,5-trimethoxyphenyl)amino)-4-pyrimidinyl)-3-piperidinecarboxamide] | 100 to 1000
COc1cc(Nc2nccc(N3CCC[C@H](C(=O)NCc4ccc5c(c4)CCO5)C3)n2)cc(OC)c1OC [Example 44, (S)-N-(2,3-dihydro-1-bcnzofuran-5-ylmethyl)-1-(2-((3,4,5-trimethoxyphenyl)amino)-4-pyrimidinyl)-3-piperidinecarboxamide] | 100 to 1000
COc1cc(Nc2nccc(N3CCC[C@H](C(=O)NC(C)c4ccc5[nH]ccc5c4)C3)n2)cc(OC)c1OC (stereo partly drawn) [Example 45, (S)-N-(1-(1H-indol-5-yl)ethyl)-1-(2-((3,4,5-trimethoxyphenyl)amino)-4-pyrimidinyl)-3-piperidinecarboxamide] | 100 to 1000
COc1cc(Nc2nccc(N3CCC[C@H](C(=O)NCc4ccc(-n5cccn5)cc4)C3)n2)cc(OC)c1OC [Example 46, (S)-N-(4-(1H-pyrazol-1-yl)benzyl)-1-(2-((3,4,5-trimethoxyphenyl)amino)-4-pyrimidinyl)-3-piperidinecarboxamide] | 1000 to 5000
COc1cc(Nc2nccc(N3CCC[C@H](C(=O)NCc4ccc(Br)cc4)C3)n2)cc(OC)c1OC [Example 47, (S)-N-(4-bromobenzyl)-1-(2-((3,4,5-trimethoxyphenyl)amino)-4-pyrimidinyl)-3-piperidinecarboxamide] | 50 to 100
COc1cccc([C@@H](C)NC(=O)[C@H]2CCCN(c3ccnc(Nc4cc(OC)c(OC)c(OC)c4)n3)C2)c1 [Example 48, (S)-N-((R)-1-(3-methoxyphenyl)ethyl)-1-(2-((3,4,5-trimethoxyphenyl)amino)-4-pyrimidinyl)-3-piperidinecarboxamide] | 1000 to 5000
COc1cc(Nc2nccc(N3CCC[C@H](C(=O)NCc4ccccc4Br)C3)n2)cc(OC)c1OC [Example 49, (S)-N-(2-bromobenzyl)-1-(2-((3,4,5-trimethoxyphenyl)amino)-4-pyrimidinyl)-3-piperidinecarboxamide] | 1000 to 5000
COc1cc(Nc2nccc(N3CCC[C@H](C(=O)NC(C)c4ccc(F)cc4)C3)n2)cc(OC)c1OC (stereo partly drawn) [Example 51, (S)-N-(1-(4-fluorophenyl)ethyl)-1-(2-((3,4,5-trimethoxyphenyl)amino)-4-pyrimidinyl)-3-piperidinecarboxamide] | 100 to 1000
COc1cc(Nc2nccc(N3CCC[C@H](C(=O)NC(C)c4ccc(O)cc4)C3)n2)cc(OC)c1OC (stereo partly drawn) [Example 53, (S)-N-(1-(4-hydroxyphenyl)ethyl)-1-(2-((3,4,5-trimethoxyphenyl)amino)-4-pyrimidinyl)-3-piperidinecarboxamide] | 5000 to 10000
COc1cc(Nc2nccc(N3CCC[C@H](C(=O)NC(C)(C)c4ccccc4)C3)n2)cc(OC)c1OC [Example 54, (S)-N-(1-methyl-1-phenylethyl)-1-(2-((3,4,5-trimethoxyphenyl)amino)-4-pyrimidinyl)-3-piperidinecarboxamide] | 1000 to 5000
COc1cc(Nc2nccc(N3CCC[C@H](C(=O)NC(C)c4ccc(C)cc4)C3)n2)cc(OC)c1OC (stereo partly drawn) [Example 55, (S)-N-(1-(4-methylphenyl)ethyl)-1-(2-((3,4,5-trimethoxyphenyl)amino)-4-pyrimidinyl)-3-piperidinecarboxamide] | 100 to 1000
COc1cc(Nc2nccc(N3CCC[C@H](C(=O)NCc4ccc(Br)cc4F)C3)n2)cc(OC)c1OC [Example 56, (S)-N-(4-bromo-2-fluorobenzyl)-1-(2-((3,4,5-trimethoxyphenyl)amino)-4-pyrimidinyl)-3-piperidinecarboxamide] | < 50
COc1cc(Nc2nccc(N3CCC[C@H](C(=O)NCc4ccc(F)cc4F)C3)n2)cc(OC)c1OC [Example 57, (S)-N-(2,4-difluorobenzyl)-1-(2-((3,4,5-trimethoxyphenyl)amino)-4-pyrimidinyl)-3-piperidinecarboxamide] | 50 to 100
COc1cc(Nc2nccc(N3CCC[C@H](C(=O)NCc4cc(Br)ccc4F)C3)n2)cc(OC)c1OC [Example 58, (S)-N-(5-bromo-2-fluorobenzyl)-1-(2-((3,4,5-trimethoxyphenyl)amino)-4-pyrimidinyl)-3-piperidinecarboxamide] | < 50
COc1cc(Nc2nccc(N3CCC[C@H](C(=O)NCc4nc(C)cs4)C3)n2)cc(OC)c1OC [Example 59, (S)-N-((4-methyl-1,3-thiazol-2-yl)methyl)-1-(2-((3,4,5-trimethoxyphenyl)amino)-4-pyrimidinyl)-3-piperidinecarboxamide] | 1000 to 5000
COc1cc(Nc2nccc(N3CCC[C@H](C(=O)NCCc4ccc(Br)cc4)C3)n2)cc(OC)c1OC [Example 60, (S)-N-(2-(4-bromophenyl)ethyl)-1-(2-((3,4,5-trimethoxyphenyl)amino)-4-pyrimidinyl)-3-piperidinecarboxamide] | 50 to 100
COc1cc(Nc2nccc(N3CCC[C@H](C(=O)NCCc4cn5ccccc5n4)C3)n2)cc(OC)c1OC [Example 61, (S)-N-(2-imidazo[1,2-a]pyridin-2-ylethyl)-1-(2-((3,4,5-trimethoxyphenyl)amino)-4-pyrimidinyl)-3-piperidinecarboxamide] | 5000 to 10000
COc1cc(Nc2nccc(N3CCC[C@H](C(=O)NCCOc4ccccc4)C3)n2)cc(OC)c1OC [Example 62, (S)-N-(2-phenoxyethyl)-1-(2-((3,4,5-trimethoxyphenyl)amino)-4-pyrimidinyl)-3-piperidinecarboxamide] | 100 to 1000
COc1cc(Nc2nccc(N3CCC[C@H](C(=O)NCc4ccc5ccsc5c4)C3)n2)cc(OC)c1OC [Example 64, (S)-N-(1-benzothiophen-6-ylmethyl)-1-(2-((3,4,5-trimethoxyphenyl)amino)-4-pyrimidinyl)-3-piperidinecarboxamide] | 100 to 1000
COc1cc(Nc2nccc(N3CCC[C@H](C(=O)NCc4ccc(Cl)c(Cl)c4)C3)n2)cc(OC)c1OC [Example 65, (S)-N-(3,4-dichlorobenzyl)-1-(2-((3,4,5-trimethoxyphenyl)amino)-4-pyrimidinyl)-3-piperidinecarboxamide] | 100 to 1000
